According to PMC4864078, “De Novo Transcriptome Analysis and Detection of Antimicrobial Peptides of the American Cockroach Periplaneta americana (Linnaeus)” (PLoS ONE, 2016):

Legend:
C. albicans (ATCC 14053) = assay type: cell-based, Candida albicans; settings: Mueller-Hinton Broth, 2 × 10^4 CFU/mL, 18 h at 37°C, visible turbidity, complete growth inhibition
Method: The bacterial strains E. coli (KACC 13821, ATCC 11775) and Staphylococcus aureus (KACC 10768, ATCC 25923), and the yeast strain Candida albicans (KCTC 7121, ATCC 14053) were purchased from the Korean Agricultural Culture Collection (KACC) and Korean Collection for Type Cultures (KCTC). Both bacteria and the yeast were cultivated overnight in tryptic soy broth (TSB; Difco, USA) at 200 rpm in a 37°C shaking incubator to the stationary phase. Bacteria were cultivated for 3 h in fresh TSB medium under the same condition to the log phase. The strains were stored with 15% glycerol at −70°C until use.
In addition, antimicrobial activities of the peptides were also tested by broth microdilution assays against E. coli, S. aureus, and C. albicans. Briefly, microbes were grown overnight in Mueller-Hinton Broth (MHB) to the onset of the stationary phase with shaking at 200 rpm. The cultures were diluted in fresh MHB to a final concentration of 2 × 10^4 CFU/mL. A stock solution of each peptide was prepared to a concentration of 640 μg/mL in 0.01% acetic acid, and was then serially diluted two-fold to reach a concentration of 10 μg/mL. After 90-μL aliquots of the microbial suspension were dispensed into each well of a 96-well polypropylene microtiter plate, 10 μL of the peptide solution was added. The antimicrobial activities of the peptides were assessed by measuring the visible turbidity in each well of the plate after 18 h of incubation at 37°C. Minimum inhibitory concentrations (MICs) are expressed as a specific value that caused complete growth inhibition.

[1] = test system: Human umbilical vein endothelial cells (HUVECs); test: Cell viability assay (MTS); assay type: cell-based; settings: 24 h treatment, 25, 50, 100 and 200 μg/mL, OD 490 nm
Method: (§1) The human keratinocytes were maintained in Dulbecco’s Modified Eagle Medium supplemented with 10% fetal bovine serum (FBS; Hyclone, USA), penicillin G (100 U/mL), and streptomycin (100 μg/mL) (Invitrogen, USA). Human umbilical vein endothelial cells (HUVECs) were grown on 0.1% gelatin-coated cell culture dishes in M199 medium (Welgene, Korea) supplemented with 20% (v/v) FBS, 3 ng/mL basic fibroblast growth factor (R&D Systems, USA), 5 U/mL of heparin (Sigma, USA), and a penicillin-streptomycin-amphotericin B mixture (100 U/mL potassium penicillin, […] streptomycin sulfate, and 250 ng/mL amphotericin B; Lonza, Belgium) as a complete medium. Cells were cultured at 37°C in a humidified incubator with 5% CO2. Cells were plated in 96-well tissue culture plates (2 × 10^4 cells per well). After 1 day, they were treated with various concentrations (25, 50, 100, and 200 μg/mL) of peptides. Melittin (Sigma, USA) was used as the positive control. After incubation for 24 h, the viability of the cells was assessed by the Cell Titer 96 AQueous One Solution Cell Proliferation Assay according to the manufacturer’s protocol (Promega, USA). The optical density at 490 nm was measured with a microplate reader (Beckman DTX 8800 Multi Detector, USA).

human keratinocytes = test: Cell viability assay (MTS); assay type: cell-based; settings: 24 h treatment, 25, 50, 100 and 200 μg/mL, OD 490 nm
Method: as §1

CC[C@H](C)[C@H](NC(=O)CN)C(=O)NCC(=O)N[C@@H](C)C(=O)N[C@H](C(=O)N[C@@H](CC(C)C)C(=O)N[C@@H](CCCCN)C(=O)N[C@H](C(=O)N[C@@H](CC(C)C)C(=O)N[C@H](C(=O)N[C@H](C(=O)NCC(=O)N[C@@H](CC(C)C)C(=O)N1CCC[C@H]1C(=O)N[C@@H](C)C(=O)N[C@@H](CC(C)C)C(=O)N[C@H](C(=O)N[C@@H](CO)C(=O)N[C@@H](Cc1c[nH]c2ccccc12)C(=O)N[C@H](C(=O)N[C@@H](CCCCN)C(=O)N[C@@H](CCCNC(=N)N)C(=O)N[C@@H](CCCCN)C(=O)N[C@@H](CCCNC(=N)N)C(=O)N[C@@H](CCC(N)=O)C(=O)N[C@@H](CCC(N)=O)C(N)=O)[C@@H](C)CC)[C@@H](C)CC)[C@@H](C)O)[C@@H](C)O)C(C)C)C(C)C [Melittin]
Minimum Inhibitory Concentration (MIC) (C. albicans (ATCC 14053)): 8 µg/mL | Cell viability of HUVECs [1]: more susceptible | Cell viability of human keratinocytes (human keratinocytes): more susceptible
